This passage reports MBC/MFC, MIC and MBC results from patent US20240101602A1, “ANTIMICROBIAL PEPTIDES AND METHOD OF PREVENTING OR TREATING INFECTION BY USING THE SAME” (priority 2020, published 2024).

The subject of test [1] is Ralstonia solanacearum strain Pss190. The following applies: Rs Pss190; optimal minimal medium, crude peptides (Table 9).
For test [2], the system named is Staphylococcus epidermidis ATCC 14990.
The test system of test [3] is Staphylococcus aureus BCRC 10777.
The subject of test [4] is Klebsiella pneumonia NTUH-K2044.
Test [5] concerns Pectobacterium carotovorum subsp. carotovorum. The format is cell-based. The method, boiled down: (§1)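 Bacteria were grown 4–6 h, set to OD600=0.08 in rich or minimal medium, then diluted 100-fold. This inoculum was mixed 1:1 with 2-fold serial peptide dilutions and incubated static at optimal temperature. MIC was read from growth and MBC taken as the lowest concentration giving no colonies.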

A further test relates to Erwinia chrysanthemi. The format is cell-based. The essentials:
as §1

By MIC is commonly meant the least concentration at which growth counts as inhibited. As usually defined, the MBC is the lowest tested concentration that kills the bacteria rather than only halting them. Low readings indicate greater bactericidal potency, high ones weaker bactericidal potency. Consider Ac-WKKLKKLLKKL-NH2 [pepD3], for which the MBC/MFC entry was “— (“—” indicates no antimicrobial activity being detected at the highest peptide concentration (32 μg/mL) tested in this study.)” in test [1]; 13.3 µg/mL in test [5]; “— (“—” indicates no antimicrobial activity being detected at the highest peptide concentration (32 μg/mL) tested in this study.)” in the test with Erwinia chrysanthemi (Ech, optimal minimal medium, crude peptides (Table 9)). For the same substance, the MIC result in test [1] was “— (“—” indicates no antimicrobial activity being detected at the highest peptide concentration (32 μg/mL) tested in this study.)”; in test [2], 16 µg/mL; in test [3] it was 16 µg/mL; in test [4], 16 µg/mL; in the test on Erwinia chrysanthemi it was 32.0 µg/mL. Besides, the MBC in test [2] amounted to 32 µg/mL; in test [3] it was 32 µg/mL; in test [4] it was 16 µg/mL; in test [5], 14.3 µg/mL.
